In assay [1] the test system is Mus musculus. Briefly: Antidepressant activity determined by duration of immobility after intraperitoneal administration at 100 mg/kg in mice. In kind it is functional.
Assay [2] concerns Mus musculus. Briefly: Antidepressant activity determined by percentage change from control after intraperitoneal administration at 100 mg/kg in mice; n = 6. In kind it is functional.

Each structure is given as a SMILES string. Values joined by “and” are separate entries in the source; they are usually repeats but may differ in a detail not shown here. Equal values may be shown once.

Take `COc1ccc(C2CC(c3c(O)ccc4ccccc34)=NN2c2ccccc2)cc1` (stereo unspecified): the figures for the Activity with Mus musculus [1] and in the assay on Mus musculus [2] were 50.78 s and -9.83%, respectively. For `Oc1ccc(C2=NN(c3ccccc3)C(c3cccc(Br)c3)C2)cc1` (stereo unspecified) the same measures were 32.46 s and -42.18%. Take `Oc1ccc2ccccc2c1C1=NN(c2ccccc2)C(c2ccc(Cl)cc2)C1` (stereo unspecified): the Activity is recorded as 46.28 s in the assay with Mus musculus [1] and -17.82% in the assay with Mus musculus [2]. `Oc1ccc2ccccc2c1C1=NN(c2ccccc2)C(c2ccc(Br)cc2)C1` (stereo unspecified): the Activity in the assay with Mus musculus [1] is on record as 25.4 s; in the assay with Mus musculus [2], -54.1%.

Consider `Cc1ccc(C2=NN(c3ccccc3)C(c3ccc(N(C)C)cc3)C2)cc1` (stereo unspecified), for which the Activity is on record as 50.15 s in the assay with Mus musculus [1] and -10.95% in the assay with Mus musculus [2].

In the case of `Oc1ccc2ccccc2c1C1=NN(c2ccccc2)C(c2ccccc2)C1` (stereo unspecified), the Activity in the assay on Mus musculus [1] was 50.33 s; in the assay on Mus musculus [2] it was -10.63%. `CN(C)c1ccc(C2CC(c3ccccc3)=NN2c2ccccc2)cc1` (stereo unspecified): the Activity in the assay on Mus musculus [1] was 22.95 s; in the assay with Mus musculus [2] it was -59.25%. On to `COc1cc(C2CC(c3c(O)ccc4ccccc34)=NN2c2ccccc2)cc(OC)c1OC` (stereo unspecified), for which the figures for the Activity with Mus musculus [1] and in the assay with Mus musculus [2] were 49.26 s and -12.53%, respectively.

Regarding `CN(C)c1ccc(C2CC(c3ccccc3O)=NN2c2ccccc2)cc1` (stereo unspecified), the Activity in the assay with Mus musculus [1] is listed as 35.85 s; in the assay on Mus musculus [2] it was -36.34%. For the molecule `CN(C)CCCN1c2ccccc2CCc2ccc(Cl)cc21` [CLOMIPRAMINE], the Activity in the assay on Mus musculus [1] (100 mg/kg) is 33.81 s and 18.68 s. In the case of `CN(C)c1ccc(C2CC(c3ccc(Br)cc3)=NN2c2ccccc2)cc1` (stereo unspecified), the Activity was 41.88 s in the assay on Mus musculus [1] and -25.63% in the assay with Mus musculus [2].

Source of the values: ChEMBL document CHEMBL1141035, “Synthesis and antidepressant activity of some 1,3,5-triphenyl-2-pyrazolines and 3-(2''-hydroxy naphthalen-1''-yl)-1,5-diphenyl-2-pyrazolines” (2005).
